Test results published in patent US20030219427A1, “TPL-2/COT kinase and methods of use” (priority 1998, published 2003).
Entries after “also recorded” stand apart in the source; their conditions may differ. Peptide text beside a SMILES is read from it. * marks the point of attachment. Cbz = O=C(OCc1ccccc1)*

Columns and labels:
[1] = test system: TPL-2-induced myc-p105 proteolysis in 3T3 cells; experiment: Pulse-chase metabolic labeling of TPL-2-induced myc-p105 proteolysis; assay type: cell-based
Protocol: Pulse-chase metabolic labeling is performed to determine whether TPL-2 regulates the proteolysis of myc-p105 in 3T3 fibroblasts. For pulse-chase metabolic labeling, NIH-3T3 fibroblasts are transiently transfected using LipofectAMINE (Gibco-BRL) (Huby, et al., (1997) J. Cell. Biol. 137, 1639-1649). Preparation of cytoplasmic and nuclear fractions is performed as described (Watanabe, et al., (1997)
EMBO J. 16, 3609-3620). For pulse-chase metabolic labeling, 2.7×10^5 3T3 cells per 60 mm dish (Nunc) are transfected with the indicated expression vectors. After 24 h, cells are washed and cultured in Met/Cys-free medium for 1 h. Cells are then labeled with 145 MBq of [^35S]-Met/[^35S]-Cys (Pro-Mix, Amersham-Pharmacia Biotech) per dish for 30 min and after washing, chased in complete medium for the indicated times. […] MG132 proteasome inhibitor (Biomol Research labs) is added at […] during the last 15 min of the Met/Cys starvation period and is maintain throughout the chase. Labeled bands are quantified by laser densitometry using a Molecular Dynamics Personal Densitometer. All pulse-chase experiments are performed on at least two occasions with similar results.
The effect of the peptide aldehyde MG132, a potent inhibitor of the proteasome, is determined to investigate whether myc-p105 proteolysis induced by TPL-2 is mediated by the proteasome. […]

[2] = target: T1, TPL-2/COT kinase (FLAG-COT (30-397)) (Homo sapiens, UniProt P41279); experiment: TPL-2/COT kinase assay and inhibitor screening (COT autophosphorylation and phosphorylation of GST-IκB-α); assay type: biochemical; details: for IC50: retested at 100 μM, 10 μM and 1 μM, compared to DMSO vehicle control, read-out: IC50 for TPL-2 inhibition (inhibits TPL-2 kinase activity by 50%); for inhibitory activity on COT autophosphorylation and phosphorylation of a COT target (IκB-α): initial screen at 100 μM in duplicate
T1 construct: made in house; host or cells: human 293A cells, transient transfection of a pcDNA vector, anti-FLAG immunoprecipitation
Protocol: FLAG-tagged COT protein was expressed in 293A cells by transfection. Typically, 24 h before transfection, human 293A cells (Quantum) were plated at 2×10^6 cells per 10 cm plate. A transfection mixture was prepared comprising 60 μl Lipofectamine (Gibco) and 800 μl Optimem (Gibco) in 15 ml tube. In. a separate tube, 8 μg of DNA encoding a FLAG-tagged COT(30-397) gene in a pcDNA vector was added to 800 μl Optimem. The contents of each tube were then mixed gently with a pipette, and allowed to incubate at room temperature for 25 min. Cells were washed once with Optimem and incubated with the transfection mixture and 6.4 ml of Optimem and allowed to incubate 5 h at 37° C. and 5% CO2. Cells were then incubated with 8 ml DMEM+10% FBS+L-glutamine on day 1, DMEM+5% FBS+L-glutamine on day 2 and harvested 48 h post-transfection.
Transfected 293A cells expressing FLAG-COT (30-397) were lysed on ice for 15 min in lysis buffer (1% Triton X-100, 50 mM Tris-HCl pH 7.5, 150 mM NaCl, 1 mM EDTA, 1 mM EGTA, 20 mM NaF, 10 mM Na4P2O7, 50 mM Na3VO4 plus Complete protease inhibitors (Boehringer)) and lysates were centrifuged (14,000 rpm for 10 min at 4° C.) and supernatants were collected. Immunoprecipitations were performed using FLAG Ab gel (Sigma) at 50 μg Ab per ml of lysate for 3 h at 4° C. with mixing. Gel beads were washed at 4° C. twice with lysis buffer and then twice with wash buffer (50 mM Tris-HCl pH 7.5, 100 mM NaCl, 0.1 mM EGTA and 1 mM DTT). Gel beads were then resuspended in wash buffer and aliquoted into tubes for various kinase reactions.
A TPL-2/COT kinase assay was used to screen various candidate TPL-2/COT kinase inhibitors. The kinase assay was performed a follows. A TPL-2 kinase (i.e., FLAG-COT (30-397)) bound on gel beads was incubated with 2 μg of a target polypeptide substrate (i.e., GST IκB-α (1-50) (Boston Biologicals) in kinase buffer (50 mM Tris-HCl pH 7.5, 10 mM MgCl2, 1 mM EGTA, 2 mM DTT and 0.01% Brij 35) in the presence of an appropriate radiolabel (30 μM ATP and 5 μCi γ-^32P-ATP (Amersham)) for 10 min at 25° C. Reactions were performed in the presence or absence of candidate compounds for inhibitor activity that were prepared as 10 mM stock solutions in 100% DMSO. The test compounds were added to the kinase reaction mixture immediately before addition of […]. Reactions were stopped by the addition of 5×SDS sample buffer, heating at 100° C. for 3 min and supernatants were collected using centrifugation. The autophosphorylation of COT and phosphorylation of the target polypeptide, i.e., GST-IκB-α were analyzed by gel electrophoresis (10% SDS-PAGE) followed by transfer to nitrocellulose membranes and autoradiography. As a control to confirm equivalent levels of FLAG-COT(30-397) and GST-IκB-α proteins were used in the different kinase reactions and also equivalent gel loading, immunoblots were performed with anti-FLAG and anti-GST antibodies, respectively, on the same membranes used for autoradiography. Inhibition of COT kinase activity, either autophosphorylation activity or phosphorylation of the target polypeptide GST-IκB-α was quantitated by scanning of autoradiographs (FIG. 13). Compounds that altered the level of these activities were further analyzed as described below.
As similarly described above, a TPL-2 polypeptide expressed in insect cells was tested for kinase activity using a target polypeptide in the presence or absence of a candidate modulator compound. […]

HA-p105(369-969) = target: T2, HA-p105(369-969) (Homo sapiens (Human), UniProt P19838 368-968); experiment: co-expression in Sf9 cells, purification of the complex from lysates
T2 construct: also called p105?N
T2 sequence: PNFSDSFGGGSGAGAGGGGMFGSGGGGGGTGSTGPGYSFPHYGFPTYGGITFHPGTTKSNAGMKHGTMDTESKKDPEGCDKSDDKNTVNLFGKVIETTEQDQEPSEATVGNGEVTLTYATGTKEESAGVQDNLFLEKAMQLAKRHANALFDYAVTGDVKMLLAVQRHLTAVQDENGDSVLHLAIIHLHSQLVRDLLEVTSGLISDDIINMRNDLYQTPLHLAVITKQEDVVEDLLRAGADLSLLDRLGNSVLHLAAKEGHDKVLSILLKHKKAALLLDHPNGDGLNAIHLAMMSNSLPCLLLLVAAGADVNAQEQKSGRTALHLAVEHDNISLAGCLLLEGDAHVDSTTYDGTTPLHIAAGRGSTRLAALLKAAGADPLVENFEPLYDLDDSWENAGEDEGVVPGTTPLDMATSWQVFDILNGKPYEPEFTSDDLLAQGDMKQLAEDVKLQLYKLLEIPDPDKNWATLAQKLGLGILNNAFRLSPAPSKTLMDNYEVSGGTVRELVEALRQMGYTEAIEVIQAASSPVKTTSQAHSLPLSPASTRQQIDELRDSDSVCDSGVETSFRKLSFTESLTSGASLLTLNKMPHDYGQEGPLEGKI

Myc-TPL-2ΔC = Myc-TPL-2ΔC (Homo sapiens (Human), UniProt P41279 1-397); experiment: cell-based or functional assay

CC(C)C[C@@H](C=O)NC(=O)[C@H](CC(C)C)NC(=O)[C@H](CC(C)C)NC(=O)OCc1ccccc1 [MG132] (Cbz-Leu-Leu-Leu-aldehyde)
effect on TPL-2-induced increased turnover (proteolysis) of myc-p105 ([1]; 3T3 cells co-transfected with myc-p105 and TPL-2, drug maintained throughout chase): blocks increased turnover of myc-p105
effect on production of myc-p50 ([1]; TPL-2 co-expressing 3T3 cells, during the chase): completely prevents production of myc-p50; also recorded: completely blocked the production of myc-p50

CCOC(=O)c1cnc2c(c1Nc1ccc(Sc3ccccc3)cc1)C(=O)CCC2 [ethyl 5-oxo-4-[4-(phenylsulfanyl)anilino]-5,6,7,8-tetrahydro-3-quinolinecarboxylate]
IC50 [2]: 10 µM

C[S+]([O-])c1ccc(-c2nc(-c3ccncc3)c(-c3ccc(F)cc3)[nH]2)cc1 (stereo not shown) [SB 203580]
inhibitory activity on COT autophosphorylation and phosphorylation of a COT target (IκB-α) [2]: little or no inhibitory activity

c1ccc(Oc2ccc3nccc(Nc4ccc(Sc5ccccc5)cc4)c3c2)cc1 [N-(6-phenoxy-4-quinolyl)-N-[4-(phenylsulfanyl)phenyl]amine]
IC50 [2]: 50 µM

CN[C@@H]1C[C@H]2O[C@@](C)([C@@H]1OC)n1c3ccccc3c3c4c(c5c6ccccc6n2c5c31)C(=O)NC4 [staurosporine]
inhibitory activity on COT autophosphorylation and phosphorylation of a COT target (IκB-α) [2]: little or no inhibitory activity

COc1cccc(-c2cc(=O)c3ccccc3o2)c1N [PD98059]
inhibitory activity on COT autophosphorylation and phosphorylation of a COT target (IκB-α) [2]: little or no inhibitory activity

B1: Flag-COT(30-397) (enzyme, not shown: small tags and cut ends)
chain: MENLYASEEPAVYEPSLMTMCQDSNQNDERSKSLLLSGQEVPWLSSVRYGTVEDLLAFANHISNTAKHFYGQRPQESGILLNMVITPQNGRYQIDSDVLLIPWKLTYRNIGSDFIPRGAFGKVYLAQDIKTKKRMACKLIPVDQFKPSDVEIQACFRHENIAELYGAVLWGETVHLFMEAGEGGSVLEKLESCGPMREFEIIWVTKHVLKGLDFLHSKKVIHHDIKPSNIVFMSTKAVLVDFGLSVQMTEDVYFPKDLRGTEIYMSPEVILCRGHSTKADIYSLGATLIHMQTGTPPWVKRYPRSAYPSYLYIIHKQAPPLEDIADDCSPGMRELIEASLERNPNHRPRAADLLKHEALNPPREDQPR
binding result (HA-p105(369-969)): binds

B2: Flag-COT(30-467) (enzyme, not shown: small tags and cut ends)
chain: MENLYASEEPAVYEPSLMTMCQDSNQNDERSKSLLLSGQEVPWLSSVRYGTVEDLLAFANHISNTAKHFYGQRPQESGILLNMVITPQNGRYQIDSDVLLIPWKLTYRNIGSDFIPRGAFGKVYLAQDIKTKKRMACKLIPVDQFKPSDVEIQACFRHENIAELYGAVLWGETVHLFMEAGEGGSVLEKLESCGPMREFEIIWVTKHVLKGLDFLHSKKVIHHDIKPSNIVFMSTKAVLVDFGLSVQMTEDVYFPKDLRGTEIYMSPEVILCRGHSTKADIYSLGATLIHMQTGTPPWVKRYPRSAYPSYLYIIHKQAPPLEDIADDCSPGMRELIEASLERNPNHRPRAADLLKHEALNPPREDQPRCTSLDSALLERKRLLSRKELELPENIADSSCTGSTEESEMLKRQRSLYIDLGALAGYFNLVRGPPTLEYG
binding result (HA-p105(369-969)): binds

B3: HA-p105 (other, not shown: small tags and cut ends)
chain: MAEDDPYLGRPEQMFHLDPSLTHTIFNPEVFQPQMALPTADGPYLQILEQPKQRGFRFRYVCEGPSHGGLPGASSEKNKKSYPQVKICNYVGPAKVIVQLVTNGKNIHLHAHSLVGKHCEDGICTVTAGPKDMVVGFANLGILHVTKKKVFETLEARMTEACIRGYNPGLLVHPDLAYLQAEGGGDRQLGDREKELIRQAALQQTKEMDLSVVRLMFTAFLPDSTGSFTRRLEPVVSDAIYDSKAPNASNLKIVRMDRTAGCVTGGEEIYLLCDKVQKDDIQIRFYEEEENGGVWEGFGDFSPTDVHRQFAIVFKTPKYKDINITKPASVFVQLRRKSDLETSEPKPFLYYPEIKDKEEVQRKRQKLMPNFSDSFGGGSGAGAGGGGMFGSGGGGGGTGSTGPGYSFPHYGFPTYGGITFHPGTTKSNAGMKHGTMDTESKKDPEGCDKSDDKNTVNLFGKVIETTEQDQEPSEATVGNGEVTLTYATGTKEESAGVQDNLFLEKAMQLAKRHANALFDYAVTGDVKMLLAVQRHLTAVQDENGDSVLHLAIIHLHSQLVRDLLEVTSGLISDDIINMRNDLYQTPLHLAVITKQEDVVEDLLRAGADLSLLDRLGNSVLHLAAKEGHDKVLSILLKHKKAALLLDHPNGDGLNAIHLAMMSNSLPCLLLLVAAGADVNAQEQKSGRTALHLAVEHDNISLAGCLLLEGDAHVDSTTYDGTTPLHIAAGRGSTRLAALLKAAGADPLVENFEPLYDLDDSWENAGEDEGVVPGTTPLDMATSWQVFDILNGKPYEPEFTSDDLLAQGDMKQLAEDVKLQLYKLLEIPDPDKNWATLAQKLGLGILNNAFRLSPAPSKTLMDNYEVSGGTVRELVEALRQMGYTEAIEVIQAASSPVKTTSQAHSLPLSPASTRQQIDELRDSDSVCDSGVETSFRKLSFTESLTSGASLLTLNKMPHDYGQEGPLEGKI
MEK kinase activity of TPL-2ΔC relative to wild type TPL-2 in cells expressing p105 (Myc-TPL-2ΔC): > 40 fold
